# Tests used:
# [1] = system: Mycobacterium tuberculosis; test: Bactericidal activity against Mycobacterium tuberculosis Erdman infected in mouse bone marrow macrophage monolayers assessed as reduction in colony forming units at 4 fold MIC concentration after 7 days; type: functional; settings: Erdman = ATCC 35801, 168 h
# [2] = system: Mycobacterium tuberculosis; test: Bacteriostatic activity against Mycobacterium tuberculosis Erdman infected in mouse bone marrow macrophage monolayers assessed as reduction in colony forming units at 4 fold MIC concentration after 7 days; type: functional; settings: Erdman = ATCC 35801, 168 h
# [3] = system: Mycobacterium tuberculosis; test: Antitubercular activity against Mycobacterium tuberculosis H37Rv ATCC 27294 by MABA; type: functional
# [4] = system: Vero; test: Cytotoxicity against African green monkey Vero cells assessed as reduction in cell viability after 72 hrs by MTT assay; type: cell-based; settings: Chlorocebus sabaeus
# [5] = Selectivity ratio of IC50 for African green monkey Vero cells to MIC for Mycobacterium tuberculosis H37Rv ATCC 27294; type: toxicity; settings: read-out: Selectivity Index
# [6] = Ratio of EC90 for Mycobacterium tuberculosis Erdman infected in mouse bone marrow macrophage monolayers to MIC for Mycobacterium tuberculosis H37Rv ATCC 27294; type: functional
# [7] = system: Mycobacterium tuberculosis; test: Antitubercular activity against Mycobacterium tuberculosis H37Rv ATCC 27294 at 6.25 ug/ml by MABA; type: functional
SMILES,EC99 [1] [µg/mL],EC90 [2] [µg/mL],MIC90 [3] [µg/mL],IC50 [4] [µg/mL],selectivity ratio [5],Ratio [6],inhibition at 6.25 µg/mL [7] [%]
CCCCc1nc(Cl)c(C2NC(=O)NC(C)=C2C(=O)Nc2ccc(F)cc2)[nH]1 (stereo not given),0.54,0.039,0.39,> 10,> 25.6,0.1,99
CCCCc1nc(Cl)c(C2NC(=O)NC(C)=C2C(=O)Nc2ccccc2C)[nH]1 (stereo not given),–,–,–,–,–,–,63
CCCCc1nc(Cl)c(C2NC(=O)NC(C)=C2C(=O)Nc2ccc(OC)cc2)[nH]1 (stereo not given),–,–,–,–,–,–,89
CCCCc1nc(Cl)c(C2NC(=O)NC(C)=C2C(=O)Nc2cccc(C)c2)[nH]1 (stereo not given),–,–,–,–,–,–,65
CCCCc1nc(Cl)c(C2NC(=O)NC(C)=C2C(=O)Nc2ccc(C)cc2)[nH]1 (stereo not given),–,–,–,–,–,–,72
CCCCc1nc(Cl)c(C2NC(=O)NC(C)=C2C(=O)Nc2ccccc2Cl)[nH]1 (stereo not given),–,–,1.56,7.6,4.87,–,92
CCCCc1nc(Cl)c(C2NC(=O)NC(C)=C2C(=O)Nc2cccc(F)c2)[nH]1 (stereo not given),–,–,–,–,–,–,85
CCCCc1nc(Cl)c(C2NC(=O)NC(C)=C2C(=O)Nc2cccc([N+](=O)[O-])c2)[nH]1 (stereo not given),–,–,–,–,–,–,76
CCCCc1nc(Cl)c(C2NC(=O)NC(C)=C2C(=O)Nc2ccccc2)[nH]1 (stereo not given),–,–,–,–,–,–,59
CCCCc1nc(Cl)c(C2NC(=O)NC(C)=C2C(=O)Nc2ccccc2OC)[nH]1 (stereo not given),–,–,–,–,–,–,79
CCCCc1nc(Cl)c(C2NC(=O)NC(C)=C2C(=O)Nc2ccc([N+](=O)[O-])cc2)[nH]1 (stereo not given),0.59,0.074,0.78,> 10,> 12.8,0.09,98
CCCCc1nc(Cl)c(C2NC(=O)NC(C)=C2C(=O)Nc2ccccc2F)[nH]1 (stereo not given),–,–,3.12,> 10,> 3.12,–,90
CCCCc1nc(Cl)c(C2NC(=O)NC(C)=C2C(=O)Nc2ccc(Cl)cc2)[nH]1 (stereo not given),0.69,0.102,0.39,9.4,24.1,0.26,97
CCCCc1nc(Cl)c(C2NC(=O)NC(C)=C2C(=O)Nc2ccccc2[N+](=O)[O-])[nH]1 (stereo not given),–,–,–,–,–,–,82
CCCCc1nc(Cl)c(C2NC(=O)NC(C)=C2C(=O)Nc2cccc(OC)c2)[nH]1 (stereo not given),–,–,–,–,–,–,72
CCCCc1nc(Cl)c(C2NC(=O)NC(C)=C2C(=O)Nc2cccc(Cl)c2)[nH]1 (stereo not given),–,–,–,–,–,–,89
NNC(=O)c1ccncc1 [ISONIAZID],0.42,0.03,0.03 to 0.06,–,> 40000,1,–

# Reference: ChEMBL document CHEMBL4425147, “Preparation, biological evaluation and molecular docking study of imidazolyl dihydropyrimidines as potential Mycobacterium tuberculosis dihydrofolate reductase inhibitors” (Bioorg Med Chem Lett, 2016)
